Data taken from ChEMBL document CHEMBL4706659, “Design, synthesis and biological evaluation of novel 2,4-diaryl pyrimidine derivatives as selective EGFR inhibitors” (Eur J Med Chem, 2021).

Experiments:
NCI-H1975 [1] = experiment: Induction of mitochondrial membrane potential loss in human NCI-H1975 cells harboring EGFR T790M/L858R mutant assessed as cells with intact mitochondrial membrane potential at 5 nM measured after 24 hrs by JC1 staining based fluorescence microscopic analysis (reference value: 94.51%); type: functional
NCI-H1975 [2] = experiment: Induction of apoptosis in human NCI-H1975 cells harboring EGFR T790M/L858R mutant assessed as late apoptotic cells at 1 nM measured after 48 hrs by Annexin-V-FITC/propidium iodide staining based flow cytometry (reference value: 0.04%); type: functional
[3] = Toxicity in nude mouse xenografted with human NCI-H1975 cells harboring EGFR T790M/L858R mutant assessed as body weight loss at 15 mg/kg, po administered once daily for 7 days relative to control; type: organism-based; conditions: in vivo, 168 h, time 7 day
PC-9 = experiment: Antiproliferative activity against human PC-9 cells harboring EGFR L858R mutant by MTT assay; type: functional, cell-based
[4] = Cmax in Sprague-Dawley rat at 2 mg/kg, iv administered as single dose; type: ADME, organism-based; set-up: route intravenous, dose 2 mg/kg; conditions: in vivo
NCI-H1975 [5] = experiment: Antiproliferative activity against human NCI-H1975 cells harboring EGFR T790M/L858R mutant by MTT assay; type: functional, cell-based
NCI-H1975 [6] = experiment: Induction of apoptosis in human NCI-H1975 cells harboring EGFR T790M/L858R mutant assessed as late apoptotic cells at 1 nM measured after 72 hrs by Annexin-V-FITC/propidium iodide staining based flow cytometry (reference value: 0.13%); type: functional
NCI-H1975 [7] = experiment: Induction of mitochondrial membrane potential loss in human NCI-H1975 cells harboring EGFR T790M/L858R mutant assessed as cell population with mitochondrial membrane potential collapse at 5 nM measured after 24 hrs by JC1 staining based fluorescence microscopic analysis (reference value: 5.49%); type: functional
[8] = Selectivity ratio of IC50 for HEK293-A cells to IC50 for antiproliferative activity against human NCI-H1975 cells; type: toxicity, cell-based; conditions: HEK293-A cells versus NCI-H1975 cells, read-out: Ratio IC50
NCI-H1975 [9] = experiment: Induction of mitochondrial membrane potential loss in human NCI-H1975 cells harboring EGFR T790M/L858R mutant assessed as cell population with mitochondrial membrane potential collapse at 10 nM measured after 24 hrs by JC1 staining based fluorescence microscopic analysis (reference value: 5.49%); type: functional
NCI-H1975 [10] = experiment: Induction of apoptosis in human NCI-H1975 cells harboring EGFR T790M/L858R mutant assessed as necrotic cells at 1 nM measured after 72 hrs by Annexin-V-FITC/propidium iodide staining based flow cytometry (reference value: 0.49%); type: functional
NCI-H1975 [11] = experiment: Induction of apoptosis in human NCI-H1975 cells harboring EGFR T790M/L858R mutant assessed as early apoptotic cells at 1 nM measured after 48 hrs by Annexin-V-FITC/propidium iodide staining based flow cytometry (reference value: 0.82%); type: functional
NCI-H1975 [12] = experiment: Antitumor activity against human NCI-H1975 cells harboring EGFR T790M/L858R mutant xenografted in nude mouse assessed as tumor growth inhibition at 15 mg/kg, po administered once daily for 7 days relative to control; type: functional; conditions: Mus musculus, NCI-H1975, po, 168 h, time 7 day, read-out: TGI
NCI-H1975 [13] = experiment: Induction of mitochondrial membrane potential loss in human NCI-H1975 cells harboring EGFR T790M/L858R mutant measured after 24 hrs by JC1 staining based fluorescence microscopic analysis; type: functional, cell-based; conditions: dose 1-10 nM
[14] = MRT in Sprague-Dawley rat at 10 mg/kg, po administered as single dose; type: ADME, organism-based; conditions: in vivo
NCI-H1975 [15] = experiment: Induction of apoptosis in human NCI-H1975 cells harboring EGFR T790M/L858R mutant assessed as necrotic cells at 5 nM measured after 72 hrs by Annexin-V-FITC/propidium iodide staining based flow cytometry (reference value: 0.49%); type: functional
NCI-H1975 [16] = experiment: Induction of mitochondrial membrane potential loss in human NCI-H1975 cells harboring EGFR T790M/L858R mutant assessed as cells with intact mitochondrial membrane potential at 10 nM measured after 24 hrs by JC1 staining based fluorescence microscopic analysis (reference value: 94.51%); type: functional
NCI-H1975 [17] = experiment: Antitumor activity against human NCI-H1975 cells harboring EGFR T790M/L858R mutant xenografted in nude mouse assessed as tumor volume at 15 mg/kg, po administered once daily for 7 days (reference value: 843 mm3); type: functional; conditions: time 7 day
[18] = biological target: Epidermal growth factor receptor (Homo sapiens, UniProt P00533); experiment: Inhibition of recombinant human GST-tagged EGFR expressed in baculovirus expression system using tyr-04 peptide as substrate incubated for 60 mins in presence of ATP by Z'-LYTE assay
[19] = AUC (0 to t) in Sprague-Dawley rat at 2 mg/kg, iv administered as single dose; type: ADME, organism-based; set-up: dose 2 mg/kg; conditions: in vivo
NCI-H1975 [20] = experiment: Induction of apoptosis in human NCI-H1975 cells harboring EGFR T790M/L858R mutant assessed as early apoptotic cells at 5 nM measured after 72 hrs by Annexin-V-FITC/propidium iodide staining based flow cytometry (reference value: 0.72%); type: functional
NCI-H1975 [21] = experiment: Induction of mitochondrial membrane potential loss in human NCI-H1975 cells harboring EGFR T790M/L858R mutant assessed as cell population with mitochondrial membrane potential collapse at 1 nM measured after 24 hrs by JC1 staining based fluorescence microscopic analysis (reference value: 5.49%); type: functional
[22] = Selectivity ratio of IC50 for HK-2 cells to IC50 for antiproliferative activity against human NCI-H1975 cells
[23] = Selectivity ratio of IC50 for antiproliferative activity against human NCI-H292 cells harboring wild-type EGFR to IC50 for antiproliferative activity against human NCI-H1975 cells harboring EGFR T790M/L858R mutant; type: functional
NCI-H1975 [24] = experiment: Induction of apoptosis in human NCI-H1975 cells harboring EGFR T790M/L858R mutant assessed as early apoptotic cells at 10 nM measured after 72 hrs by Annexin-V-FITC/propidium iodide staining based flow cytometry (reference value: 0.72%); type: functional
NCI-H1975 [25] = experiment: Antimigratory activity against human NCI-H1975 cells harboring EGFR T790M/L858R mutant assessed as inhibition of cell migration at 3 nM measured after 48 hrs by phase contrast microscopic analysis relative to control; type: functional
[26] = Oral bioavailability in Sprague-Dawley rat at 10 mg/kg administered as single dose; type: ADME, organism-based; conditions: in vivo
NCI-H1975 [27] = experiment: Induction of apoptosis in human NCI-H1975 cells harboring EGFR T790M/L858R mutant assessed as late apoptotic cells at 5 nM measured after 72 hrs by Annexin-V-FITC/propidium iodide staining based flow cytometry (reference value: 0.13%); type: functional
[28] = biological target: Epidermal growth factor receptor (Homo sapiens, UniProt P00533, L858R/T790M); experiment: Inhibition of recombinant human GST-tagged EGFR T790M/L858R double mutant (668 to 1210 residues) expressed in baculovirus expression system using Tyr 4 as substrate incubated for 60 mins by Z'-Lyte assay
[29] = Cmax in Sprague-Dawley rat at 10 mg/kg, po administered as single dose; type: ADME, organism-based; set-up: route oral, dose 10 mg/kg; conditions: in vivo

Epidermal growth factor receptor (Homo sapiens, UniProt P00533, L858R/T790M), sequence (P00533 25-1210 T790M/L858R limits assumed): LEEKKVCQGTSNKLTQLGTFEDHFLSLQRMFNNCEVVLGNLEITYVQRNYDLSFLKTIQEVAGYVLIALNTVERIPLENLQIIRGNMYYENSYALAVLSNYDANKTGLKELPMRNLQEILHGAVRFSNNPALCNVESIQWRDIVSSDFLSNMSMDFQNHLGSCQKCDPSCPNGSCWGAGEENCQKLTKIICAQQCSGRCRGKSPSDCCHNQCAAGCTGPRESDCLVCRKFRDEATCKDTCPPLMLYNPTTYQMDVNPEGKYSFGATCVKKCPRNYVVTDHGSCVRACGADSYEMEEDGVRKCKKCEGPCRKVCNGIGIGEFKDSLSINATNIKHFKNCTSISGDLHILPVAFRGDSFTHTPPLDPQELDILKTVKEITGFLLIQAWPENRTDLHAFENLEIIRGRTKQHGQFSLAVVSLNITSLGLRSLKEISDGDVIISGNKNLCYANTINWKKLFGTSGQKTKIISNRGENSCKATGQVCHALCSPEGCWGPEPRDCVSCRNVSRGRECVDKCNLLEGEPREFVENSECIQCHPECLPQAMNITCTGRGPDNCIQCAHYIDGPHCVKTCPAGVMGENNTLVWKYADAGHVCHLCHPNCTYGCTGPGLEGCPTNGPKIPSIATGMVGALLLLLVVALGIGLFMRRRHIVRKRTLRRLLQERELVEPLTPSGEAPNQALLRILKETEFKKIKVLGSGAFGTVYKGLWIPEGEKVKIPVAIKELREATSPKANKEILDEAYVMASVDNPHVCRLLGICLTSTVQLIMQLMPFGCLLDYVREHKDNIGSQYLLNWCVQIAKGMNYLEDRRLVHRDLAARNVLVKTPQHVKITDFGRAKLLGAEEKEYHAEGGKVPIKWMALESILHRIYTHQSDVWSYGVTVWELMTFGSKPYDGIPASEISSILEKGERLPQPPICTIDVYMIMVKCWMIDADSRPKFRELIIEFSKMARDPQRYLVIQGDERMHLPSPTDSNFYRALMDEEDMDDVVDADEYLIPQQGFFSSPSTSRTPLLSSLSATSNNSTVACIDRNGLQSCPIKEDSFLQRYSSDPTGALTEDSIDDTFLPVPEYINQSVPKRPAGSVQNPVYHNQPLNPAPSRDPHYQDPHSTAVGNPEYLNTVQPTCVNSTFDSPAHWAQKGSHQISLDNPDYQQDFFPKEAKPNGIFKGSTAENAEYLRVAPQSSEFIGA
Epidermal growth factor receptor (Homo sapiens, UniProt P00533), sequence (P00533 whole entry): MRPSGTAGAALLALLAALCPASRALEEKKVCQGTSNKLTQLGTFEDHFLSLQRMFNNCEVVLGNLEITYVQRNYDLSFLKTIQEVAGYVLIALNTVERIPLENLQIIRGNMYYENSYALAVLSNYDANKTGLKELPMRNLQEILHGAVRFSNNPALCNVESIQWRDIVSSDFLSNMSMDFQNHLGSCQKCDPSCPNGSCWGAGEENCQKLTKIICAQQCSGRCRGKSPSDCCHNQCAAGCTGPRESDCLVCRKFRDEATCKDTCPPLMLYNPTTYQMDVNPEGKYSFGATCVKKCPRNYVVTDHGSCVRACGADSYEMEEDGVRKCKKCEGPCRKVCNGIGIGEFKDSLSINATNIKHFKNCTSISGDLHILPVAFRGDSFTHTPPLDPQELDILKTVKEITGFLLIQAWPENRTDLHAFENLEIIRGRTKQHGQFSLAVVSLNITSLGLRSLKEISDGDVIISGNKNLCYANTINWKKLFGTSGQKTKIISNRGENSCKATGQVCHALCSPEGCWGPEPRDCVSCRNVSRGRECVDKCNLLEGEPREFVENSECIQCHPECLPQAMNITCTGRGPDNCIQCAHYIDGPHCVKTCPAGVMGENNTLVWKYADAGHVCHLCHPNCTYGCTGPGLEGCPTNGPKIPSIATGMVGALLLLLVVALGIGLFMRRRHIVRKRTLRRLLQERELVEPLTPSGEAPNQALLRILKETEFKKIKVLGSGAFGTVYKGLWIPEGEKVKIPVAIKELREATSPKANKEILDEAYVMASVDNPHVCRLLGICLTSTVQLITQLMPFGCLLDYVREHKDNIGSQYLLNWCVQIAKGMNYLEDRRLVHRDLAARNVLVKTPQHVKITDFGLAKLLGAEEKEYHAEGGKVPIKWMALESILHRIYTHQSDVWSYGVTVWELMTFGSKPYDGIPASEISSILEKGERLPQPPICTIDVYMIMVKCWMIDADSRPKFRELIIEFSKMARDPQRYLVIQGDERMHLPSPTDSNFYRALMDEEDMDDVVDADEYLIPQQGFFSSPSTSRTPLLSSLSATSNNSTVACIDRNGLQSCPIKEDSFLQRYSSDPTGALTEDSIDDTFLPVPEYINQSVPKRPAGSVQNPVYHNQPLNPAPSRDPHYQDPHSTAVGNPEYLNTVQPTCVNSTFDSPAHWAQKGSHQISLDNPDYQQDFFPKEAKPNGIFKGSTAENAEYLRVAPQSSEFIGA

C=CC(=O)Nc1cc(Nc2nccc(-c3cn(C4CC4)c4ccccc34)n2)c(OC)cc1[S+]([O-])CCN(C)C (stereo not given)
Activity (NCI-H1975 [1]): 72.38% | Activity (NCI-H1975 [2]): 1.64% | Activity [3]: < 5% | IC50 (PC-9): 4 nM | Cmax [4]: 503 ng/mL | IC50 (NCI-H1975 [5]): 8 nM | Activity (NCI-H1975 [6]): 2.93% | Activity (NCI-H1975 [7]): 26.9% | selectivity ratio [8]: 383 | Activity (NCI-H1975 [9]): 40.31% | Activity (NCI-H1975 [10]): 9.52% | Activity (NCI-H1975 [11]): 10.89% | inhibition in vivo at 15 mg/kg (NCI-H1975 [12]): 93.3% | Activity (NCI-H1975 [13]): Dose-dependent effect | MRT [14]: 3.61 h | Activity (NCI-H1975 [15]): 10.51% | Activity (NCI-H1975 [16]): 59.69% | Activity (NCI-H1975 [17]): 56 mm3 | IC50 [18]: 4.1 nM | AUC(0-t) [19]: 335 ng·h/mL | Activity (NCI-H1975 [20]): 19.59% | Activity (NCI-H1975 [21]): 19.29% | Ratio IC50 [22]: 733 | Ratio IC50 [23]: 89.8 | Activity (NCI-H1975 [24]): 44.72% | inhibition at 0.003 µM (NCI-H1975 [25]): 53% | bioavailability [26]: 40.4% | Activity (NCI-H1975 [27]): 17.07% | IC50 [28]: 0.26 nM | Cmax [29]: 203 ng/mL
